# Assays:
# primary hepatocytes = assay: Cytotoxicity determination in primary hepatocytes (Toxilight, MTT, total protein); format: cell-based, mouse
# Procedure: For cell viability determination using MTT, primary hepatocytes were seeded on a 96-well plate at 20,000 cells/well. The following day cells were treated at different doses, as indicated, for 18 h following similar protocol described above for drug treatment of primary hepatocytes. […] of MTT reagent (5 mg/ml) was then added to each well (n=4/dose) and cells were incubated for 1 h at 37° C. Medium was discarded and dye was extracted by adding […] DMSO to each well. For cytotoxicity determination using ToxiLight Non-destructive Cytotoxicity Bioassay, hepatocytes were seeded on a 6-well plate and treated with either SR-18292 ([…]) or cisplatin ([…]) for 18 h. […] of medium was collected and used to measure cellular toxicity by adding 100 of adenylate kinase detection reagent (AKDR) and incubating 5 min at RT before measuring luminescence.
# Lep^ob/ob mice = assay: Blood glucose in Lep ob/ob mice with hepatic PGC-1α knockdown; format: in vivo; settings: shPGC-1α adenovirus
# Procedure: Virus was introduced to mice through the tail vein injection. Virus was thawed before injection and the desired amount of virus was diluted with saline to a final volume of 100 μL per mouse. Each mouse was injected with 6*10^7 pfu/g. SR-18292 treatment started on day 5 post infection.
# In addition, liver toxicity, as measured by serum levels of alanine transaminase (ALT), aspartate aminotransferase (AST), lactate dehydrogenase (LDH) and bilirubin, was not observed in mice treated with SR-18292 (Table 6). […] To assess the contribution of PGC-1α in mediating the in vivo effects of SR-18292, hepatic PGC-1α in Lep^ob/ob mice was depleted using shRNA and observed a significant reduction in basal blood glucose concentrations compared to control. […] To fully assess the effects of SR-18292 on whole body glucose homeostasis and insulin resistance, a glucose tolerance test (GTT) and insulin tolerance test (ITT) were performed following the same protocol used to determine fasting blood glucose. […] As expected, insulin levels after GTT were lower in the treated group (FIG. 51). […] To test if SR-18292 chronic treatment will cause similar anti-diabetic effects, mice were treated for a period of 14 days.
# HFD fed mice = assay: Insulin tolerance test (ITT); format: in vivo; settings: HFD 3 weeks
# Procedure: All mice were purchased from Jackson laboratories and housed under a 12 h light/12 h dark cycle at 22° C. Before handling, mice were allowed to acclimate for at least 1 week in our animal facility. For in vivo studies with DIO mice, males 6-8 weeks old were fed HFD for the indicated time. For drug administration, SR-18292 was re-suspended in a 10% DMSO/10% Tween80/80% PBS solution at a final concentration of 6-12 mg/ml. Metformin was re-suspended in the same solution at a 20 mg/ml concentration. SR-18292 was injected via I.P. for 3 days between 4-5 pm and food was removed on day 3 at 5 pm. […] Metformin was administered via oral gavage. […] Insulin tolerance test was performed following the same dosing protocol, but mice were fasted for 4 hours after the forth injection before performing the test. Insulin was injected via I.P. (0.5 U/Kg) and blood glucose was measured every 20 minutes. Glycemia was measured by tail bleed using a glucometer (OneTouch). For all experiments, age- and body weight-matched animals were used. For protein, RNA extracts and biochemistry studies, livers were removed following each experiment and snap frozen in liquid nitrogen. For information on number of animals in each experiment please refer to FIGS. 4, 5 and S5 legends. All studies were performed according to protocols approved by Beth Israel Deaconess Medical Center's Animal Care and Use Committee.
# HNF4α = assay: Transcriptional luciferase reporter assay (Pck1 promoter fragment with HNF4α site) in U-2 OS cells; format: cell-based; settings: 24 h
# Procedure: U-2 OS cells were transfected with a fixed amount of DNA. After 6 h medium was changed and compound treatment started. The following morning medium was changed again and fresh compound was added for additional 3 h after which cells were collected (24 h post transfection) with 1× Passive Lysis Buffer (Promega). Firefly luciferase reporter was determined by addition of Luciferase Assay Substrate (Dual-Luciferase Reporter Assay System, Promega) and quantification of luminescence on a FLUOstar Omega plate reader (BMG Labtech). CMV-driven Renilla luciferase vector was cotransfected as an internal control. Data are presented as firefly luciferase reporter values normalized to Renilla values and are representative of at least two independent experiments.
# The GCN5 acetyl transferase complex decreases PGC-1α gluconeogenic transcriptional activation by interacting with PGC-1α. This is achieved at least in part by reducing the ability of PGC-1α to co-activate the nuclear hormone receptor HNF4α. Co-activation of HNF4α by PGC-1α is required to promote transcription of the gluconeogenic genes Pck1 and G6pc. To test whether SR-18292 reduces the transcriptional activity of HNF4α that is induced by PGC-1α, a luciferase reporter construct driven by a fragment of the Pck1 promoter containing an HNF4α binding site was used. […]
smiles,measurement,setting,value
"Cc1ccc(CN(CC(O)COc2cccc3[nH]ccc23)C(C)(C)C)cc1 (centres unmarked) [SR-18292, 1-((1H-indol-4-yl)oxy)-3-(tert-butyl(4-methylbenzyl)amino)propan-2-ol]",hepatocyte toxicity by cell viability or total protein levels,primary hepatocytes; 18 h treatment,did not cause hepatocyte toxicity
same,total protein levels,primary hepatocytes; n=3,not affected
same,SR-18292-mediated reduction in blood glucose with reduced hepatic PGC-1α,Lep^ob/ob mice,blunted SR-18292-mediated reductions in blood glucose concentrations
same,response to insulin,HFD fed mice,enhanced
same,transcriptional activity of HNF4α induced by PGC-1α,HNF4α,significantly reduced

# Source: patent US11247970B2, “Selective inhibition of gluconeogenic activity” (Dana-Farber Cancer Institute, Inc., priority 2017, dated 2022)
